# Experimental data from patent US7534558B2, “In vitro diagnostic test for enterovirus infections” (Universite de Lille 2 Droit Et Sante, priority 2003, dated 2009).
# Test system: anti-VP4 antibodies in plasmas or serums
# Experiment: ELISA of plasmas/serums on wells coated with VP4 protein or VP4 peptides
# Assay type: binding, human
# Conditions: diluted 1/50, antigen coated at 5 μg/ml, 490 nm
# Protocol: 40 plasmas from non diabetic patients and 40 plasmas or serums from diabetic patients were assayed.
# The VP4 protein or the 5 VP4 peptides, diluted at 5 μg/ml in PBS buffer pH=7.4, are coated in the wells of a microplate of 96 wells (FluoroMunc, MaxiSorp surface, NUNC, Danemark) at the rate of 100 μl/well. The plates are incubated for 1 hour at 37° C. under humid atmosphere, then left for 24 h at room temperature. After 3 washings with PBS buffer, the wells are saturated with 300 μl of saturation buffer for 1 hour at 37° C. under humid atmosphere, before washing 3 times with the washing buffer. Then 250 μl of post-coating buffer are added to each well and the plates are incubated for 24 h at room temperature, then stored at 4° C. until use.
# The wells coated with the VP4 protein or the different peptides VP4 are washed 3 times with washing buffer in order to remove the post-coating solution. Then 100 μl of the plasmas or serums diluted to 1/50th in dilution buffer are added to different wells and the plates are incubated for 1 hour at 37° C. under humid atmosphere. Simultaneously, a negative control well containing 100 μl of dilution buffer is carried out. Then the wells are washed 3 times with the washing solution and 100 μl of secondary antibody solution are added to each well. After incubation for 1 h at 37° C. under humid atmosphere, the wells are washed 5 times with the washing solution and 100 μl of substrate solution are added to each well. The plates are incubated for 30 minutes at room temperature and in the dark. The coloured reaction is stopped by addition of 25 μl of H2SO4 2M (1M) per well and the plates are read in a plate reader at a wavelength of 490 nm.
# ODs obtained for each serum with the VP4 protein and the different peptides VP4 were divided by the OD obtained with the negative control. The following Tables show the mean +/− standard deviation of the rates of OD obtained with the two series of assayed serums (Patient=diabetic patients, Control=not diabetic). (see FIGS. 8 à 10)
substance,measurement,setting,value
"recombinant VP4 protein: recombinant VP4 protein of CVB4E2, made in E. coli as MBP-VP4 fusion and cleaved by Factor Xa","Mean value of OD ratio (OD / OD of negative control), ELISA",Control = 40 serums of non diabetic patients,0.695
same,"Mean value of OD ratio (OD / OD of negative control), ELISA",Patient = 40 serums of diabetic patients,2.119
